Assay results taken from article PMC5974751, “NKp44-Derived Peptide Binds Proliferating Cell Nuclear Antigen and Mediates Tumor Cell Death” (Frontiers in Immunology, 2018).
Peptide text beside a SMILES is read from it.

Experiments:
[1] = system: 4T1 breast cancer tumor in BALB/C mice; assay: In vivo 4T1 tumor growth; set-up: species or system mouse; details: for tumor growth suppression vs vehicle, significance on days 19 and 23 / tumor growth suppression vs vehicle, significance on day 28: R11-NLS-pep8 5 mg/kg IV, 5-FU 30 mg/kg; for tumor growth suppression vs vehicle, significance on days 19 and 23: every 2 days, treatment stopped day 22, unpaired t-test, one-tail; for tumor growth suppression vs vehicle, significance on day 28: treatment stopped day 22
Protocol: Seven-week-old female BALB/C mice with an average body weight of 20 g were used in this experiment. 4T1 cells suspended at a density of 2 × 10^5 cells/50 μl, in serum-free DMEM containing 40% Geltrex, were injected into the left mammary fat pad, and allowed to develop tumors. After 5 days, mice were randomly divided into three groups, one group was treated with R11-NLS-pep8, at a dose of 5 mg/kg, intravenously (IV), other group with 5-FU, at a dose of 30 mg/kg, (IV) and mice treated with a 1.44% DMSO/150 mM NaCl solution, (IV) served as the vehicle control. Treatment was continued following every 2 days at least for 4 weeks. Each week, tumor size was evaluated by measuring their length (L) and width (W), using a Caliper device and tumor volume (V) was calculated according to the equation: V = LW^2/2. After 4 weeks of treatment, mice were euthanized, and tumors volume and weight were measured.
Figure 5 Effect of R11-NLS-pep8 on 4T1 and B16 in vivo tumor models. (A) 4T1 cells or (C) B16 cells were injected into the nipple pad or flank of young BALB/C females or C57BL/6 males, respectively (day 0). At day 5, mice were divided to subgroups according to mice weight. Treatment was started at day 5 (4T1) or day 6 (B16) and end at day 22. Treatment was administrated every 2 days three times per week; 5-FU was administered intraperitoneally (IP) while R11-NLS-pep8 was administrated intravenously (4T1) or IP (B16). Tumor volume (mm^3) was measured at days as indicated on graphs mean tumor volume (mm^3), (B) 4T1 and (D) B16 were normalized to vehicle/day to show the effect of treatment on tumor volume per day. Statistical analysis was performed on original tumor volume data. Unpaired t-test; one-tail, *p < 0.05.

[2] = system: B16 melanoma tumor in C57BL/6 mice; assay: In vivo B16 tumor growth; set-up: species or system mouse; details: R11-NLS-pep8 5 mg/kg IP, 5-FU 30 mg/kg IP, treatment stopped day 22
Protocol: Seven-week-old male C57BL/6 mice with an average body weight of 23 g were used in the other experiment. B16 cells suspended at a density of 0.5 × 10^6 cells/100 μl, in serum-free DMEM containing 40% Geltrex, were injected subcutaneously in the left dorsal flank, and allowed to develop tumors. After 6 days, mice were randomly divided into three groups, one group was treated with R11-NLS-pep8, at a dose of 5 mg/kg, intraperitoneally (IP), other group with 5-FU, at a dose of 30 mg/kg, (IP) and mice treated with a 1.44% DMSO/150 mM NaCl solution, (IP) served as the vehicle control. Treatment was done three times a week at least for 4 weeks. Each week, tumors size was evaluated by measuring their length (L) and width (W), using a Caliper device and tumor volume (V) was calculated according to the equation: V = LW^2/2. After 3 weeks of treatment, mice were euthanized, and tumors volume and weight were measured.
Figure 5 Effect of R11-NLS-pep8 on 4T1 and B16 in vivo tumor models. (A) 4T1 cells or (C) B16 cells were injected into the nipple pad or flank of young BALB/C females or C57BL/6 males, respectively (day 0). At day 5, mice were divided to subgroups according to mice weight. […] Tumor volume (mm^3) was measured at days as indicated on graphs mean tumor volume (mm^3), (B) 4T1 and (D) B16 were normalized to vehicle/day to show the effect of treatment on tumor volume per day. […]

[3] = system: pep8–PCNA interaction (recombinant PCNA); assay: ELISA-based inhibition of biotin-pep8 binding to PCNA; set-up: species or system human; details: inhibitor 25 µg/ml 1 h, then biotin-pep8 5 µg/ml 1 h, room temperature, O.D. 650 nm
Protocol: To determine the ability of APIM-based peptide to suppress NKp44-pep8 interaction with PCNA, ELISA plates were coated with recombinant PCNA followed by PBS–skim milk added as described earlier. Plates were then incubated with 25 µg/ml of R11-NLS-pep8 (positive control), R11-NLS-pep8short (negative control), and APIM for 1 h at room temperature followed by addition of biotin-pep8 (5 µg/ml) without washing for 1 h at room temperature. Biotin-pep8 binding to PCNA was detected using streptavidin conjugated HRP (1 h at 1:500 dilution 100 μl/well). Following washing, TMB (100 μl/well DAKO, S1599) was added. O.D. was read at 650 nm (Thermo Electron Corporation Multiskan Spectrum).

[4] = system: MDA-MB-231 breast adenocarcinoma cells; assay: PrestoBlue cell viability, MDA-MB-231; format: cell-based, human; details: MDA-MB-231, PrestoBlue, 24 h; sigmoidal dose–response
Protocol: (§1) Target cells (2.5 × 10^4 cells/well of a 48-well plate, Corning) were seeded and incubated in 37°C, 5% CO2 for 24 h in 0.5 ml of fresh complete DMEM (10% FBS) culture medium. According to molecular weight peptides were diluted from 8 to 2 µM with 5% FBS containing DMEM culture medium just before the incubation with the target cells. Medium was removed from each well, and 250 µl of diluted peptides was added and incubated for another 24 h at 37°C, 5% CO2. PrestoBlue (A13261, Invitrogen™) solution was prepared by diluting the dye 10-fold with complete DMEM. Medium was discarded from each well, and 250 µl of PrestoBlue solution was added to each well, shake gently and incubated at 37°C for another 1 h. Emission at 560 nm was measured in Premium Quad4 Monochromators plate reader (Tecan). Normalization was done relative to the appropriate control (DMEM or DMSO) to calculate the percentage of viable cells in each group. Selenite (25 µM) was used as a positive control ([52], [53]).

[5] = system: HepG2 hepatocellular carcinoma cells; assay: PrestoBlue cell viability, HepG2; format: cell-based, human; details: 24 h, sigmoidal dose–response
Protocol: as §1

B16 melanoma cells = assay: PrestoBlue cell viability, B16; format: cell-based, murine; details: 24 h, sigmoidal dose–response
Protocol: as §1

B16 cells = assay: Flow cytometry based cell death assay (PI), B16; set-up: species or system murine; details: 0–8 µM, 24 h
Protocol: (§2) Peptides were diluted before the incubation with the target cells with free DMEM culture medium to 0–16 µM according to peptide molecular weight. For adding the peptides, 0.5 ml was removed from each well, and 0.5 ml of diluted peptides was added to a final volume of 1 ml, 5% FCS, duplicates. Peptides were incubated with target cells for 24 h, and then the medium was collected, adherent cells were removed with trypsin–EDTA (0.5 ml, 3 min, BI: 03-052-1B), 1 ml of complete medium was added to each well, and the medium was collected (final volume 2.5 ml, on ice). For the cell death assay, samples were then centrifuged (1,300 rpm, 4°C, 5 min), the medium was removed, fresh 1 ml 10% FCS was added, and then 1 µl of 1 mg/ml PI was added to each sample and incubated (15 min, on ice) with the target cells. Before analyzing the samples, samples were centrifuged (1,300 rpm, 4°C, 5 min), the medium was removed, and fresh 0.2 ml FCAS buffer (PBS 1×, 20% FCS, 0.5% NaN3) was added. Samples were then read and analyzed using BD FACSCanto™ II and FlowJo®. APIM peptide and camptothecin (CPT) were used as positive controls ([38], [54]–[56]). Specific cell death was calculated as following: Y = 100*((sample cell death − basal cell death)/(100 − basal cell death)). Basal cell death = % of PI positive cells following incubation in complete culture media.

[6] = Initial toxicity studies in mice; format: in vivo, mouse; details: 5 mg/kg every 2 days for 3 weeks; data not shown
Protocol: Initial toxicity studies have been performed with the 5 mg/kg dose injected into mice every 2 days for 3 weeks, and analysis of mouse weight and well-being was meticulously observed during this time. Also, livers, spleens, and lungs were harvested and weight.

[7] = system: PANC-1 pancreas ductal adenocarcinoma cells; assay: PrestoBlue cell viability, PANC-1; format: cell-based, human; details: PANC-1, PrestoBlue, 24 h; sigmoidal dose–response
Protocol: as §1

4T1 cells = assay: Flow cytometry based cell death assay (PI), 4T1; set-up: species or system murine; details: 4T1, PI flow cytometry, 0–8 µM, 24 h
Protocol: as §2

MDA-MB-231 cells = assay: Flow cytometry based cell death assay (PI), MDA-MB-231; set-up: species or system human; details: MDA-MB-231, PI flow cytometry, 0–8 µM, 24 h
Protocol: as §2

inhibition of pep8 binding to PCNA [3] [%]	Compound	tumor growth suppression vs vehicle, significance on days 19 and 23 [1]	tumor growth suppression vs vehicle, significance on day 28 [1]	tumor growth suppression, day 23 [2]	ED50, cell viability [4] [µM]	ED50, cell viability [5] [µM]	growth suppression relative to 5-FU ([1]; R11-NLS-pep8 5 mg/kg IV vs 5-FU IP 30 mg/kg)	ED50, cell viability (B16 melanoma cells) [µM]	ED50, cell death (B16 cells) [µM]	mice weights and well-being [6]	organ weights (livers, spleens, lungs) at end of experiment [6]	ED50, cell viability [7] [µM]	ED50, cell death (4T1 cells) [µM]	ED50, cell death (MDA-MB-231 cells) [µM]
	O=c1[nH]cc(F)c(=O)[nH]1 [5-FU, reference compound]	clear yet non-significant on days 19 and 23	significant on day 28	significantly suppressed B16 growth										
35	CC[C@H](C)[C@H](NC(=O)[C@H](CCCNC(=N)N)NC(=O)[C@H](CCCNC(=N)N)NC(=O)[C@H](CCCNC(=N)N)NC(=O)[C@H](CCCNC(=N)N)NC(=O)[C@H](CCCNC(=N)N)NC(=O)[C@H](CCCNC(=N)N)NC(=O)[C@H](CCCNC(=N)N)NC(=O)[C@H](CCCNC(=N)N)NC(=O)[C@H](CCCNC(=N)N)NC(=O)[C@H](CCCNC(=N)N)NC(=O)[C@H](CCCNC(=N)N)NC(C)=O)C(=O)N[C@@H](CCCCN)C(=O)N[C@@H](CCCCN)C(=O)N[C@@H](CCCCN)C(=O)N[C@@H](CCCNC(=N)N)C(=O)N[C@@H](CCCCN)C(=O)N[C@@H](Cc1c[nH]c2ccccc12)C(=O)N[C@@H](CCC(=O)O)C(=O)N[C@@H](C)C(=O)N[C@@H](CO)C(=O)N[C@@H](C)C(=O)N[C@@H](CC(C)C)C(=O)N[C@H](C(=O)N[C@@H](CS)C(=O)N[C@H](C(=O)N[C@@H](CCCNC(=N)N)C(=O)N[C@@H](CC(C)C)C(=O)N[C@H](C(=O)N[C@H](C(=O)N[C@@H](CO)C(=O)N[C@@H](CO)C(=O)N[C@@H](CCCCN)C(=O)N1CCC[C@H]1C(=O)N[C@@H](CCCNC(=N)N)C(=O)N[C@H](C(=O)N[C@H](C(=O)N[C@H](C)C(=O)O)C(C)C)[C@@H](C)O)[C@@H](C)O)C(C)C)[C@@H](C)CC)C(C)C [R11-NLS-pep8] (HELM PEPTIDE1{[ac].R.R.R.R.R.R.R.R.R.R.R.I.K.K.K.R.K.W.E.A.S.A.L.V.C.I.R.L.V.T.S.S.K.P.R.T.V.[dA]}$$$$V2.0; C-terminus assumed)	statistically significant on days 19 and 23	statistically non-significant difference	significantly suppressed B16 growth	5.6	5.9	comparable to the effect of 5-FU	7.1	3.94	No significant changes were observed	No significant changes were observed	7.8	3.78	4.07
